# Values of other authors as cited in patent US6620446B2, “Antibacterial composition for control of gram positive bacteria in food applications” (Rhodia, Inc., priority 2000, dated 2003).
# Tested on: L. monocytogenes
# Conditions: reported by M. Doyle, Food Technology 1988
substance,measurement,value
nisin,"initial inhibition of the organism's growth, duration",about 12 hours
